Data taken from PubChem BioAssay AID720632 (Broad Institute, 2013).
Active and inactive are the calls of the source. The rule behind the calls is not given here.

Target: Caspase-6 (Homo sapiens) (UniProt P55212)
Assay: human caspase-6 inhibitors, dose response, biochemical, VEID-R110 fluorescence, cherry-pick (AID 720632)
Conditions: caspase-6, VEID-R110 fluorogenic substrate; at 26 µM (top of the series)

Sequence of Caspase-6 (Homo sapiens) (P55212 24-179 limits assumed): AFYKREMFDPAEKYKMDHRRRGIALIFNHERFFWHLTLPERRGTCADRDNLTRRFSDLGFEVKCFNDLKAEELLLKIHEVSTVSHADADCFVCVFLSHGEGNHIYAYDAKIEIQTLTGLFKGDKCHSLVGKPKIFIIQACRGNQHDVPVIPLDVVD
Sequence of Caspase-6 (Homo sapiens) (P55212 194-293 limits assumed): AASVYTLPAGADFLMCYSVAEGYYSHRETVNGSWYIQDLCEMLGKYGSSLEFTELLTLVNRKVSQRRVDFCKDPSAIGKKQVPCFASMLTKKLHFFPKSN

Row | SMILES | activity change, negative = inhibition
1 | O=C(Nc1nc2ccc([N+](=O)[O-])cc2s1)c1ccncc1 | inactive
2 | CN(C)c1ccc2c(c1)[C@@H]1C[C@@H](CC(=O)NCc3ccccn3)O[C@@H](CO)[C@@H]1O2 | inactive
3 | COc1ccc(C(=O)Nc2cc(C(=O)O)cc(C(=O)O)c2)cc1Cl | inactive
4 | O=C(NCC(c1ccco1)N1CCc2ccccc21)c1cccc([N+](=O)[O-])c1 (stereo not drawn) | inactive
5 | Cc1nc2ccccc2c(=O)n1-c1ccc(NS(=O)(=O)c2ccc(F)cc2F)cc1 | inactive
6 | CO[C@@H]1CN(C)C(=O)c2ccc(NC(=O)C3CC3)cc2OC[C@@H](C)N(CC2CCOCC2)C[C@@H]1C | inactive
7 | Nc1ccccc1Sc1ccc(C(=O)c2ccccc2C(=O)O)cc1[N+](=O)[O-] | inactive
8 | O=C(N/N=C/c1coc2ccccc2c1=O)c1cc(Br)ccc1O | inactive
9 | CCCN1C[C@@H](C)[C@H](OC)CN(C)C(=O)c2ccc(NC(=O)CC)cc2OC[C@@H]1C | inactive
10 | Cc1ccccc1NC(=O)C1CCCN(S(=O)(=O)c2cnc[nH]2)C1 (stereo not drawn) | inactive
11 | COc1ccc(OC)c(NC(=O)Nc2ccc(O)c3ccccc23)c1 | inactive
12 | CCCC(=O)Nc1ccc2c(c1)OC[C@H](C)N(Cc1ccc(F)cc1)C[C@H](C)[C@@H](OC)CN(C)C2=O | inactive
13 | Cc1cc(C)cc(N(CC(=O)NC(C)C)C(=O)CCC(=O)Nc2ccccn2)c1 | inactive
14 | CCC1(C)Cc2c(C#N)c(N)n(-c3ccccc3)c(=S)c2CO1 (stereo not drawn) | inactive
15 | O=C(C1CCN(c2ccc(N3CCOCC3)nn2)CC1)N1CCc2ccccc2C1 | inactive
16 | COc1ccccc1-n1c(CNC(=O)c2ccc(S(=O)(=O)N3CCCCC3)cc2)n[nH]c1=S | inactive
17 | COCC(=O)Nc1ccc2c(c1)OC[C@@H](C)N(CC1CC1)C[C@H](C)[C@H](OC)CN(C)C2=O | inactive
18 | CCC(C)CN1C(=O)CN(S(C)(=O)=O)CC1(C)C(=O)Nc1ccc2c(c1)OCCO2 (stereo not drawn) | inactive
19 | CO[C@@H]1CN(C)C(=O)c2ccc(NC(C)=O)cc2OC[C@@H](C)NC[C@@H]1C | inactive
20 | CN1CCCCC(NC(=O)COCc2ccccc2)C1=O (stereo not drawn) | inactive
21 | CCC(=O)N1CCC1(C)C(=O)Nc1ccc2c(c1)CCN2C(C)=O (stereo not drawn) | inactive
22 | COC(=O)CN1C(=O)COc2ccc(S(=O)(=O)N3CCCCC3)cc21 | inactive

Row | SMILES | activity change, negative = inhibition
23 | Cc1ccc(C(=O)N/N=C\c2ccc(OC(=O)c3cccc(F)c3)cc2)cn1 | inactive
24 | COCC(=O)Nc1ccc2c(c1)OC[C@H](C)N(CC1CC1)C[C@H](C)[C@H](OC)CN(C)C2=O | inactive
25 | Cc1ccc(C(=O)NCC(=O)N(C)Cc2ccccc2C)s1 | inactive
26 | O=C(Nc1ccc(F)cc1)c1ccccc1NC(=O)C1CC=CCC1C(=O)O (stereo not drawn) | inactive
27 | Cc1ccc2c(c1)c1c(n2CC(O)CN2CCC(C)CC2)CCCC1 (stereo not drawn) | inactive
28 | CCOC(=O)N1CCN(C(=O)Cc2ccccc2[N+](=O)[O-])CC1 | inactive
29 | COc1ccccc1NC(=O)c1ccccc1S(=O)(=O)c1ccc([N+](=O)[O-])cc1 | inactive
30 | CCC(CC)COC(=O)C1=C(C)NC(=O)NC1c1cc(OC)ccc1OC (stereo not drawn) | inactive
31 | CN(C(=O)c1ccc(Cl)cc1)c1ccc(OCC(=O)Nc2cc(C(=O)O)ccc2Cl)cc1 | inactive
32 | Cc1ccc(Nc2ncnc3sccc23)c(C)c1 | inactive
33 | O=C1[C@H]2[C@@H](c3ccccc3)N[C@]3(CCCN(CC4CCCCC4)C3=O)[C@H]2C(=O)N1Cc1ccccc1 | inactive
34 | O=C(C[C@@H]1C=C[C@@H](NC(=O)c2ccc(F)cc2)[C@@H](CO)O1)NCc1ccncn1 | inactive
35 | COc1ccc(NC(=O)C(F)(OC)C(F)(F)F)c(OC)c1 (stereo not drawn) | inactive
36 | Cc1ccc(NC(=O)c2ocnc2C)cc1Cl | inactive
37 | O=C(Nc1ccc2c(c1)OCCO2)C1CCCC1 | inactive
38 | O=C(Nc1ccc(C(=O)N2CCCC2)cc1)c1ccc2c(c1)OCO2 | inactive
39 | CC(C)C(=O)N1CCN(c2ccccc2NC(=O)c2cccc3ccccc23)CC1 | inactive
40 | CCN(CC)C1CCN(Cc2c(C(=O)N3CCCCCCC3)nc3ccc(Cl)cn23)C1 (stereo not drawn) | inactive
41 | CC(Nc1ccc2ccccc2c1)C(=O)N/N=C/c1ccncc1 (stereo not drawn) | inactive
42 | Nc1ccc2cn[nH]c2c1 | inactive
43 | COCCn1c(SCCN2CCOCC2)nc2c1c(=O)[nH]c(=O)n2C | inactive
44 | Cc1cc(-n2nnc3ccccc32)nc2ccccc12 | inactive

Row | SMILES | activity change, negative = inhibition
45 | C/C(CC(=O)Nc1cc(C)ccn1)=N\NC(=O)c1cccc(C)c1O | inactive
46 | CO[C@H]1CN(C)C(=O)c2ccc(NC(=O)c3ccccc3)cc2OC[C@H](C)N(C(=O)C2CC2)C[C@H]1C | inactive
47 | CC(C)c1ccc(C(=O)N2CCCC(c3cc(C(=O)Nc4ccccc4Cl)no3)C2)cc1 (stereo not drawn) | inactive
48 | Cc1cc(C)c(NC(=O)COC(=O)c2ccc([N+](=O)[O-])s2)c(C)c1 | inactive
49 | O=C(N/N=C/c1oc(O)c2ccccc12)c1ccccc1O | inactive
50 | CC(C)(C)N(Cc1ccccc1)C(=O)COC(=O)c1ccc([N+](=O)[O-])o1 | inactive
51 | CCCN1C[C@@H](C)[C@@H](OC)CN(C)C(=O)c2ccc(NC(=O)CC)cc2OC[C@H]1C | inactive
52 | Nc1cc(C(Cl)=C(Cl)Cl)c(S(N)(=O)=O)cc1S(N)(=O)=O | inactive
53 | COc1nc(C)c2cc(C)oc2n1 | inactive
54 | O=[N+]([O-])c1ccc2nc(-c3ccccc3[N+](=O)[O-])[nH]c2c1 | inactive
55 | Cn1c(NN=O)nc2ccccc21 | inactive
56 | CCC(=O)N1C[C@H](C)[C@H](OC)CN(C)C(=O)c2ccc(NC(=O)c3ccccc3)cc2OC[C@H]1C | inactive
57 | CCN(CC)CCN(CC)Cc1ccccc1Br | inactive
58 | O=C(NC1CC1)c1c(O)c2ccccc2[nH]c1=O | inactive
59 | CC(C)=NNc1cc([N+](=O)[O-])cc2c1C(=O)N(C)S2=O (stereo not drawn) | inactive
60 | COc1cc(CNC(C)c2ccccc2)c(Br)cc1OCC(N)=O (stereo not drawn) | inactive
61 | Cc1ccc(/C(N)=N/OC(=O)c2ccc3ccccc3c2)cc1 | inactive
62 | CCCN1C[C@H](C)[C@H](OC)CN(C)C(=O)c2ccc(NC(=O)c3ccccc3)cc2OC[C@H]1C | inactive
63 | O=C(OCC(=O)N1CCN(c2ccccc2)CC1)c1ccc([N+](=O)[O-])s1 | inactive
64 | O=C(COC(=O)c1ccc([N+](=O)[O-])o1)Nc1ccc(N2CCOCC2)cc1 | inactive
65 | CCOc1ccc(NC(=O)CN(C)C(=O)c2cc(C)nc3ccccc23)cc1OCC | inactive
66 | CCOc1ccc(Nc2nc(N3CCOCC3)nc(N3CCOCC3)n2)cc1 | inactive

Row | SMILES | activity change, negative = inhibition
67 | Cc1ccccc1CN(C)C(=O)COC(=O)CSc1ccc([N+](=O)[O-])cc1 | inactive
68 | C/C(=N/NS(=O)(=O)c1ccc(Cl)cc1)c1cccc(NC(=O)c2ccncc2)c1 | inactive
69 | CCC(=O)Nc1ccc2c(c1)OC[C@@H](C)N(Cc1ccccc1)C[C@@H](C)[C@@H](OC)CN(C)C2=O | inactive
70 | O=[N+]([O-])c1ccccc1S(=O)(=O)Nc1nc2ccccc2s1 | inactive
71 | Cc1cnc(NC(=O)c2ccc3c(c2)OCCO3)s1 | inactive
72 | O=C(C[C@@H]1C[C@H]2c3cc(NC(=O)Nc4ccccc4F)ccc3O[C@H]2[C@H](CO)O1)NC1CCCC1 | inactive
73 | COCC(=O)Nc1ccc2c(c1)OC[C@@H](C)N(CC1CC1)C[C@@H](C)[C@@H](OC)CN(C)C2=O | inactive
74 | Cn1c(CSCCOc2ccccc2)n[nH]c1=S | inactive
75 | O=C1c2ccccc2C(=O)C1(CO)c1ccccc1 | inactive
76 | O=C(N/N=C/C1CC=CCC1)c1ccc(Cl)cc1O (stereo not drawn) | inactive
77 | OC[C@H]1[C@H](c2ccc(-c3ccc(F)cc3)cc2)[C@@H]2CN(Cc3cccnc3)CCCCN12 | inactive
78 | O=C(C[C@H]1C=C[C@H](NC(=O)c2ccccc2)[C@H](CO)O1)NCCc1ccncc1 | inactive
79 | CC(C)CCn1c(=O)c2ccccc2n2c(CCC(=O)NCC3CCCO3)nnc12 (stereo not drawn) | inactive
80 | COCCNc1nc(Nc2ccccc2Cl)c2sc(-c3ccccc3)cc2n1 | inactive
81 | Cc1ccc(S(=O)(=O)N2CCC(C(=O)NCCCN3CCOCC3)CC2)cc1C | inactive
82 | Cc1onc(-c2ccc(Cl)cc2Cl)c1-c1csc(N/N=C/c2ccccc2Cl)n1 | inactive
83 | CSc1ccccc1OCc1cc(C(=O)N2CCc3c(Cl)cccc3C2)no1 | inactive
84 | Cc1ccc(C)c(OCCC(=O)N2CCN(S(=O)(=O)c3cc(F)ccc3F)CC2)c1 | inactive
85 | O=C(O)c1cc([N+](=O)[O-])cc([N+](=O)[O-])c1N1CCN(c2cccc(C(F)(F)F)c2)CC1 | inactive
86 | O=C1CC(NS(=O)(=O)c2cc(F)ccc2F)CN1c1cccc(F)c1 (stereo not drawn) | inactive
87 | Cc1ccn2c(=S)[nH]nc2c1 | inactive
88 | C#CC(C)(C)NC(=O)c1ccc(-c2ccccc2F)cc1 | inactive
